Test results as given in PubChem BioAssay AID179 (DTP/NCI, 2004).
Activity calls are given as the source filed them.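 How the source made its calls: active means compounds giving half or more protection of infected cells from virus-caused growth loss, again on retest; inactive means the rest.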 Where a SMILES comes first, the peptide text is derived from it.

System: CEM cells HIV-1 protection, formazan growth assay
Test: NCI AIDS Antiviral Assay
Settings: for IC50: measured here: growth of uninfected CEM cells
Procedure, shortened: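 Screen of anti-HIV-1 activity in human CEM cells using a formazan-based growth measurement at five drug concentrations. Hits with 50% or greater protection were repeated, and confirmation required reproducible complete protection.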

## CC(=O)OC1OC2C(NC(=O)OC(C)(C)C)C1CC2(OCc1ccccc1)OCc1ccccc1 (centres undefined)
  EC50: > 28.2 µM
  IC50: > 28.2 µM

## O=[N+]([O-])C1=C(c2ccccc2)SC([N+](=O)[O-])=C(c2ccccc2)S1
  EC50: > 200 µM
  IC50: 14.8 µM

## C=CC[C@@H](N)C(=O)N(C)[C@@H](C)[C@@H](O)c1ccccc1
  EC50: > 200 µM
  IC50: > 200 µM

## O=C1/C(=C/c2ccc([N+](=O)[O-])cc2)CNC/C1=C\c1ccc([N+](=O)[O-])cc1
  EC50: > 2 µM
  IC50: 0.363 µM

## Cc1cc(=S)c2cc3c(cc2[nH]1)OCO3
  EC50: > 200 µM
  IC50: 79.4 µM

## O=C(c1ccccc1)c1ccc(SSc2ccc(C(=O)c3ccccc3)cc2[N+](=O)[O-])c([N+](=O)[O-])c1
  EC50: > 200 µM
  IC50: 13.8 µM

## COc1ccc(-n2nc(C)cc(N)c2=O)cc1
  EC50: > 1070 µM
  IC50: > 1070 µM

## [N-]=[N+]=Nc1cc(=O)n(-c2ccccc2)c2ccccc12
  outcome: inactive

## Cc1ccc(S(=O)(=O)Oc2coc(CO)cc2=O)cc1
  EC50: > 200 µM
  IC50: 12.3 µM

## CN(C)CCN(C)CCC(=O)/C=C/c1ccccc1
  outcome: inactive

## CC(C)(C)c1cc(COc2c3sc(=S)sc3c(OCc3cc(C(C)(C)C)cc(C(C)(C)C)c3)c3sc(=S)sc23)cc(C(C)(C)C)c1
  outcome: inactive

## COC(=O)CCC(=O)C(CC(=O)OC)C(=O)CCC(=O)NCCc1ccccc1 (centres undefined)
  EC50: > 27.5 µM
  IC50: > 27.5 µM

## NC(=O)Cc1nc2c(N)ncnc2n1C1OC(CO)C(O)C1O (centres undefined)
  EC50: > 200 µM
  IC50: > 200 µM

## O=S1(=O)c2ccccc2-c2ccccc21
  outcome: inactive

## CC(C)(Oc1ccc2c(=O)cc(-c3ccc(Cl)cc3)oc2c1)C(=O)Nc1c(Cl)cccc1Cl
  EC50: > 10.2 µM
  IC50: > 10.2 µM

## O=S1(=O)OC(c2cc(Br)c(O)c(Br)c2)(c2cc(Br)c(O)c(Br)c2)c2c(Br)c(Br)c(Br)c(Br)c21
  outcome: inactive

## CC(C)CC(NC(=O)C(CO)NC(=O)C(CCCCN)NC(=O)C(CCCCN)NC(=O)C(NC(=O)CNC(=O)C(NC(=O)C(CO)NC(=O)C(NC(=O)C(NC(=O)C(CO)NC(=O)C(CC(N)=O)NC(=O)C(N)CCC(N)=O)C(C)C)C(C)C)C(C)O)C(C)C)C(=O)NC(Cc1ccccc1)C(=O)NC(CCC(N)=O)C(=O)O (centres undefined) (H-QNSVVSTGVKKSLFQ-OH; configuration not given here)
  outcome: inactive

## O=C(c1cccs1)N(C(=O)N1CCC(c2ccccc2)CC1)c1ccccc1
  EC50: > 200 µM
  IC50: > 200 µM

## COc1ccc(-c2cc(-c3ccccc3)n(C3OCC(OC(C)=O)C(OC(C)=O)C3OC(C)=O)c(=S)c2C#N)cc1 (centres undefined)
  EC50: > 200 µM
  IC50: 43.7 µM

## C=CC[C@@]1(C)CCCCCCCCC[C@@](C)(CC=C)C1=O
  EC50: > 200 µM
  IC50: 115 µM

## COC(=O)CCC(=O)NC1C2CC3CC(C2)CC1C3 (centres undefined)
  EC50: > 135 µM
  IC50: > 135 µM

## CN(C)CCNC(=O)c1noc2c1CSc1ccccc1-2
  EC50: > 407 µM
  IC50: 28.2 µM

## CCOc1ccc(NC(=O)CCC(=O)NN)cc1
  EC50: > 724 µM
  IC50: 603 µM

## OCC1CCCCCCCCCCC12SCCCS2 (centres undefined)
  EC50: > 200 µM
  IC50: 120 µM

## CC(=O)OCC1OC(n2c(-c3cccs3)c3c(c(C#N)c2=S)-c2ccccc2CC3)C(OC(C)=O)C(OC(C)=O)C1OC(C)=O (centres undefined)
  outcome: inactive

## CCSCCCCCCCCCCCC(=O)O
  EC50: 9.33 µM
  IC50: 32.4 µM

## c1ccc(SSc2ccc3ccccc3c2)cc1
  EC50: > 200 µM
  IC50: 9.33 µM

## Nc1nnc2nc(CC(=O)c3cccc([N+](=O)[O-])c3)/c(=C/C(=O)c3cccc([N+](=O)[O-])c3)n12
  EC50: > 16.2 µM
  IC50: > 16.2 µM

## N=C(N)C1CN(CC=O)C(=O)NC1=O (centres undefined)
  EC50: > 200 µM
  IC50: > 200 µM

## Cc1ccc(N/C(Sc2ccccc2)=C(/C(Cl)=C(Cl)Cl)[N+](=O)[O-])c(C)c1
  EC50: > 200 µM
  IC50: 27.5 µM

## Cc1c(C(=O)C/C(=N/NC(=O)C[N+](C)(C)C)C(=O)Nc2ccc(Cl)cc2)[n+](=O)c2ccccc2n1O
  EC50: > 9.12 µM
  IC50: > 9.12 µM

## COc1ccc(CC(=O)NC(C)Cc2ccc(OC)c(OC)c2)cc1OC (centres undefined)
  outcome: inactive

## CCCn1c(SCC)c2cc3cc4ccccc4cc3cc2c1-c1nc(F)nc(F)n1
  EC50: > 30.9 µM
  IC50: 22.4 µM

## O=C1Cc2c(-c3ccccc3)cc(-c3cccc(Cl)c3)nc2-c2ccccc2N1
  outcome: inactive

## Cc1ccc(S(=NS(=O)(=O)c2ccc(C)cc2)c2ccc(C)cc2)cc1
  EC50: > 49 µM
  IC50: > 49 µM

## CCN(CC)Cc1cc2[nH]c3c4ccc(Cl)cc4ncc3c2cc1OC (tested in a mixture with another compound)
  EC50: > 100 µM
  IC50: 0.457 µM

## Cc1ccc(S(=O)(=O)SCC(=O)c2ccc([N+](=O)[O-])cc2)cc1
  outcome: inactive
  IC50: 102 µM

## CC1(C)CCC2=C(C1)Nc1ccc(Cl)cc1NC2c1ccc([N+](=O)[O-])cc1 (centres undefined)
  EC50: > 200 µM
  IC50: 24.5 µM

## CC(CCc1ccc2c(c1)c(=N)c1ccc(N)cc1n2O)CC(C)(C)C (centres undefined)
  outcome: inactive

## Cc1cc(O)cc(O)c1N=Nc1ccc([N+](=O)[O-])cc1
  EC50: > 200 µM
  IC50: 3.47 µM

## COC(CNC(=O)NC(=O)CCC(=O)O)[CH2][Hg][n]1cnc2c1c(=O)n(C)c(=O)n2C (centres undefined)
  EC50: > 200 µM
  IC50: 85.1 µM

## CC(C)(C)OC(=O)C(C1NC2C(=O)OCC2(CO)S1)N1C(=O)c2ccccc2C1=O (centres undefined)
  EC50: > 200 µM
  IC50: > 200 µM

## CN(C)NC1=C([N+](=O)[O-])C=NN(c2ccccc2)C1
  EC50: > 27.5 µM
  IC50: 0.468 µM

## C/C(CC(=O)Nc1cccc([N+](=O)[O-])c1)=N\NC(=O)C[n+]1ccccc1
  EC50: > 631 µM
  IC50: 240 µM

## O=C(Nc1ccc([N+](=O)[O-])cc1)N(c1ccccc1)c1cc(N2CCOCC2)ccn1
  EC50: > 200 µM
  IC50: 39.8 µM

## O=C1NCCN1/N=C/c1c(Cl)n(-c2ccccc2)c2ccccc12
  EC50: > 200 µM
  IC50: 16.6 µM

## N#CCc1c(F)c(F)c(F)c(F)c1F
  EC50: > 200 µM
  IC50: > 200 µM

## O=C(O)CNC(=O)Cn1[se]c2ccccc2c1=O
  EC50: 18.2 µM
  IC50: 110 µM

## CN(C)CC(O)CNC(=O)Nc1ccccc1 (centres undefined)
  EC50: > 200 µM
  IC50: > 200 µM

## O=C1C/C(=C/c2ccc(/C=C3/CC(=O)N(c4cccc(Br)c4)C3=O)cc2)C(=O)N1c1cccc(Br)c1
  EC50: > 11.2 µM
  IC50: > 11.2 µM

## O=C(O)/C=C/C(=O)NCCCCCCNC(=O)/C=C/C(=O)O
  outcome: inactive

## COC(=O)c1cc2cnc1CSCc1cnc(c(C(=O)OC)c1)CSC2
  EC50: > 200 µM
  IC50: > 200 µM

## CC1CCC2(CC1)NN=c1s/c(=C\c3ccc(O)cc3)c(=O)n1N2 (centres undefined)
  outcome: inactive

## COC(=O)N(C)C(C#N)CCc1ccccc1 (centres undefined)
  EC50: > 15.5 µM
  IC50: > 15.5 µM

## NC(=S)N/N=C(/CCN1CCCC1)CC(C1=C(O)C2=CCCCC2OC1=O)c1ccccc1 (centres undefined)
  EC50: > 135 µM
  IC50: > 135 µM

## Cc1nn(C(=O)c2ccncc2)c2c1C(c1ccccc1O)SC(N)=N2 (centres undefined)
  EC50: 85.1 µM
  IC50: 148 µM

## N=C(N)SCCC(=O)CCSC(=N)N
  EC50: > 85.1 µM
  IC50: 63.1 µM

## C/C(=C\c1ccc(F)cc1)C(=O)O
  EC50: > 275 µM
  IC50: > 275 µM

## COC(=O)c1ccccc1OCc1cc(=O)oc2ccc(C)cc12
  outcome: inactive

## Cc1cc(S(=O)(=O)NC2=NC(c3ccccc3)c3ccccc3N2)c(S)cc1Cl (centres undefined)
  EC50: > 200 µM
  IC50: > 200 µM

## Cn1c(-c2cccs2)cc(-c2cccs2)c1-c1ccsc1
  EC50: > 20 µM
  IC50: 11.2 µM
